Measured values as given in patent US8722910B2, “Diyne compositions” (Evolva AG, priority 2009, dated 2014).
“And” between values parts separate entries of the source, which are not always exact repeats. Equal entries are not always repeated.

Legend:
[1] = system: CYP1A; assay: Inhibition of cytochrome P450 enzymes; type: in vitro ADME; conditions: human, probe ethoxyresorufin; substrate ethoxyresorufin
Method: (§1) Peak areas corresponding to the metabolite of each substrate were recorded. The percent of control activity was then calculated by comparing the peak area obtained in the presence of the diyne potassium salt and in the absence.

[2] = system: Cytochrome P450 1A; assay: Inhibition of cytochrome P450 enzymes; type: in vitro ADME; conditions: substrate ethoxyresorufin; 10 μM
Method: as §1

[3] = system: Cytochrome P450 3A; assay: Inhibition of cytochrome P450 enzymes; type: in vitro ADME; conditions: 10 μM
Method: as §1

[4] = system: S. cerevisiae; assay: Doubling times of S. cerevisiae; type: cell-based
Method: S. cerevisiae was cultured in the presence of 1 and 10 μg/ml of the potassium salt, 10 μg/ml oleic acid and 1 μg/ml of the potassium salt combined with 10 μg/ml oleic acid.
When S. cerevisiae was cultured in the presence of 1 and 10 μg/ml compound IV″, the doubling times increased to 2.4 h and 4.2 h, respectively, compared to 2 h for the untreated control. The addition of 10 μg/ml oleic acid, sodium salt, to 1 μg/ml compound IV″ reversed the doubling time to 2 h as observed for the untreated control or 10 μg/ml oleic acid, sodium salt alone.

O=C([O-])CCCCCCC/C=C\C#CC#Cc1ccco1.[K+] [Compound IV″, potassium (Z)-14-(furan-2-yl)tetradeca-9-en-11,13-diynoate]
IC50 [1]: 59 µM | % control at 10 μM [2]: 92% | % control at 10 μM ([3]; substrate midazolam): 85% | % control at 10 μM ([3]; substrate testosterone): 90% | Doubling time ([4]; 1 μg/ml): 2.4 h | Doubling time ([4]; 1 μg/ml combined with 10 μg/ml oleic acid): 2 h and 2.1 h | Doubling time ([4]; 10 μg/ml): 4.2 h
